Experimental data reported in paper PMC11909324 (Journal of the Science of Food and Agriculture, 2024).
pIC50: −log10 of the molar value.

Experiments:
xanthine oxidase (XO) [1] = molecular target: T1, xanthine oxidase (XO) (Bos taurus, UniProt P80457); assay: Fluorescence quenching studies of polyphenol-XO complexes; format: binding, bovine; conditions: for Log K SV ± SEM (Stern–Volmer quenching constant): K SV in L mol^−1; for Log K SV ± SEM (Stern–Volmer quenching constant) / Log K ± SEM (binding constant, modified Stern–Volmer) / Kd: λex 280 nm, λem 335 nm, XO 0.4 μmol L^−1, pH 7.5; for Log K ± SEM (binding constant, modified Stern–Volmer) / Kd: association constant K in L mol^−1; for K (binding constant) of polyphenol–XO complex: fluorescence quenching; for Kd: read-out: Log K ± SEM (binding constant, modified Stern–Volmer) (converted)
T1 construct: XO (from bovine milk); purchased Merck (Darmstadt, Germany); host or cells: bovine milk (natural source)
T1 sequence (P80457 whole entry): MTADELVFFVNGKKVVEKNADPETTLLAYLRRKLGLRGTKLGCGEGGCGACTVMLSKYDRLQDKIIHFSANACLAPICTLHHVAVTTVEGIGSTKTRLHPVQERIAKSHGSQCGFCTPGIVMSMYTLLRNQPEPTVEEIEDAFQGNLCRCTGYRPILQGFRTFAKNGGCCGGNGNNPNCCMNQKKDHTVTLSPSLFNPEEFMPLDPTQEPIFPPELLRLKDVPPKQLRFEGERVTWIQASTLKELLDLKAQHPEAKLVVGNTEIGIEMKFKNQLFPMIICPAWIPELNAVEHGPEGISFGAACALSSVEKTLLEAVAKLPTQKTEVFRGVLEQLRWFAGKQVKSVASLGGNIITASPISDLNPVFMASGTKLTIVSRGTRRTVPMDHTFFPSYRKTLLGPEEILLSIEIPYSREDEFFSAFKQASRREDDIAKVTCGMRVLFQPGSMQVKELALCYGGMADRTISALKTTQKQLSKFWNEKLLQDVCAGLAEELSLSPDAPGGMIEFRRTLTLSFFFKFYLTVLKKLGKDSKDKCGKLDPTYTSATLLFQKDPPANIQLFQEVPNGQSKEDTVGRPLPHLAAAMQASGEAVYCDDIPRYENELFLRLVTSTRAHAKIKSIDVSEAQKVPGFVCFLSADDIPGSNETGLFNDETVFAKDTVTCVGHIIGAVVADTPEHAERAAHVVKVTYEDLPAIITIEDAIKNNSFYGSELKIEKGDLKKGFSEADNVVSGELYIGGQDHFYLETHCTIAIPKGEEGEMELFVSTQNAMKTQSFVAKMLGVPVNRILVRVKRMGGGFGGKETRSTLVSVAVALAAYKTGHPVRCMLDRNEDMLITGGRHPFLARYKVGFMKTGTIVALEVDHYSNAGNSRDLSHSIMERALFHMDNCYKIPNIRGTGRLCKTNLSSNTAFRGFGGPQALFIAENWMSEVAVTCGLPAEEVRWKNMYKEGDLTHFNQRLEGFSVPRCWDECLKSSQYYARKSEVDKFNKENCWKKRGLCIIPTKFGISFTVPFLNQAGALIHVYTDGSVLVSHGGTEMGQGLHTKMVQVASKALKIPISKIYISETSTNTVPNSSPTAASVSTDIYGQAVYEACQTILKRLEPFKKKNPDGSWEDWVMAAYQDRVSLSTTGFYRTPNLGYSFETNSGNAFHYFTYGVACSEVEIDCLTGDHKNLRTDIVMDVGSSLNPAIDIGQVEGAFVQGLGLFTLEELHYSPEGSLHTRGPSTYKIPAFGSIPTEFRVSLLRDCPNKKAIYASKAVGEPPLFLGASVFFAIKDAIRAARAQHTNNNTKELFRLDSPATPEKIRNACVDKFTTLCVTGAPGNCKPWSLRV
Experimental: Increasing concentrations of polyphenols (0, 2, 4, 6, 8 and 10 μmol L^−1) were added to a standard amount of XO (0.4 μmol L^−1) in sodium phosphate buffer (0.05 mol L^−1, pH 7.5). Then, the emission spectra of XO were recorded using 280 nm excitation wavelength. The inner‐filter effects of silymarin components/metabolites were corrected based on the following equation[39], [41], [42]: (1) Icor=Iobs×e^Aex+Aem/2 where I cor is the corrected and I obs is the observed emission intensity; while A ex and A em are the absorbance of polyphenols at the excitation and emission wavelengths applied, respectively. Polyphenol‐induced fluorescence quenching was evaluated at 335 nm. Stern–Volmer quenching constants (K SV; unit: L mol^−1) of polyphenol–XO complexes were determined using the graphical application of the Stern–Volmer equation[43], [44], [45]: (2) I0/I=1+KSV×Q where I 0 and I are the emission signals of XO without and with the polyphenols tested, respectively, and [Q] denotes the molar concentration (mol L^−1) of the quencher (polyphenols). The binding constants (K; unit: L mol^−1) of polyphenol–XO complexes were calculated applying the modified Stern–Volmer equation[43], [44], [45]: (3) I0/I0−I=1/fa×K×1/Q+1/fa where I 0, I and [Q] have the same meaning as in Eqn (2), and f a is the fraction of the accessible fluorophore.

xanthine oxidase (XO) [2] = molecular target: T1, xanthine oxidase (XO); assay: XO assay with xanthine as substrate (uric acid formation, HPLC-UV); format: biochemical, bovine; conditions: for pIC50: XO 0.0003 U mL^−1, 8 min, 37 °C, pH 7.5, read-out: IC50, xanthine oxidation; for pIC50 / XO-catalyzed uric acid formation / decrease in uric acid production (inhibition of XO-catalyzed xanthine oxidation) / inhibition at 20 µM: xanthine 5 μmol L^−1; for XO-catalyzed uric acid formation: inhibitor 5 μmol L^−1; for decrease in uric acid production (inhibition of XO-catalyzed xanthine oxidation) / inhibition at 20 µM: inhibitor 20 μmol L^−1; for α = IC50 of flavonoid/IC50 of positive control, xanthine oxidation: relative to APU; for inhibition at 20 µM: read-out: decrease in uric acid production (inhibition of XO-catalyzed xanthine oxidation);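 for all read-outs here: incubations in 0.05 mol L^−1 sodium phosphate buffer, with uric acid and remaining xanthine both quantified by HPLC-UV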
xanthine oxidase (XO) [3] = molecular target: T1, xanthine oxidase (XO); assay: Reversibility of XO inhibition (preincubation, increasing xanthine concentrations); format: biochemical, bovine; conditions: SBS 5 μmol L^−1, DSC and DSCS 0.5 μmol L^−1; 10 min preincubation; xanthine 5, 25, 50 μmol L^−1
Experimental: After 8 min incubation (700 rpm, 37 °C), the reaction was stopped, and the samples were treated in the same way as described in the previous paragraph.

xanthine oxidase (XO) [4] = molecular target: T1, xanthine oxidase (XO); assay: XO assay with 6MP as substrate (6-thiouric acid formation, HPLC-UV); format: biochemical, bovine; conditions: for pIC50: XO 0.01 U mL^−1, 25 min, 37 °C, pH 7.5, read-out: IC50, 6MP oxidation; for pIC50 / XO-catalyzed 6-thiouric acid formation / decrease in 6-thiouric acid formation (inhibition of XO-catalyzed 6MP oxidation): 6MP 5 μmol L^−1; for fold stronger inhibition than APU, 6MP assay: based on IC50 values; for XO-catalyzed 6-thiouric acid formation: inhibitor 5 μmol L^−1; for IC50(6MP)/IC50(xanthine): ratio of IC50 values with the two substrates; for α = IC50 of flavonoid/IC50 of positive control, 6MP oxidation: relative to APU; for decrease in 6-thiouric acid formation (inhibition of XO-catalyzed 6MP oxidation) / lower decrease in metabolite formation in the 6MP assay than in the xanthine assay: inhibitor 20 μmol L^−1; for lower decrease in metabolite formation in the 6MP assay than in the xanthine assay: difference between assays;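 for all read-outs here: incubation in 0.05 mol L^−1 sodium phosphate buffer, with 6MP and 6-thiouric acid quantified by HPLC-UV and conversion taken as the product share of substrate plus product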

For COc1cc([C@@H]2Oc3cc([C@H]4Oc5cc(O)cc(O)c5C(=O)[C@@H]4O)ccc3O[C@H]2CO)ccc1OS(=O)(=O)O [SBS, silybin B‐20‐O‐sulfate], the “Log K SV ± SEM (Stern–Volmer quenching constant)” value (shortened to “Log K SV ± SEM”) (xanthine oxidase (XO) [1]) was 4.63 ± 0.01, the “Log K ± SEM (binding constant, modified Stern–Volmer)” value (shortened to “Log K ± SEM”) (xanthine oxidase (XO) [1]) was 5.05 ± 0.02 and the “K (binding constant) of polyphenol–XO complex” value (xanthine oxidase (XO) [1]) was “above 10^5 L mol^−1”. For the same compound, the pIC50 (xanthine oxidase (XO) [2]) was 6.62, the “XO-catalyzed uric acid formation” value (xanthine oxidase (XO) [2]) was “almost completely abolished” and the “decrease in uric acid production (inhibition of XO-catalyzed xanthine oxidation)” value (xanthine oxidase (XO) [2]) was “more than 80%”. The “α = IC50 of flavonoid/IC50 of positive control, xanthine oxidation” value (from here on “α = IC50 … xanthine oxidation”) (xanthine oxidase (XO) [2]) was 0.92, the “reversibility of the inhibitory action on XO” value (xanthine oxidase (XO) [3]) was “reversible” and the pIC50 (xanthine oxidase (XO) [4]) was 6.24. For the same compound, the “fold stronger inhibition than APU, 6MP assay” value (xanthine oxidase (XO) [4]) was about 7 fold, the “XO-catalyzed 6-thiouric acid formation” value (xanthine oxidase (XO) [4]) was “almost completely abolished” and the “IC50(6MP)/IC50(xanthine)” value (xanthine oxidase (XO) [4]) was 2.4. The “α = IC50 of flavonoid/IC50 of positive control, 6MP oxidation” value (“α = IC50 of flavonoid/IC50 … 6MP oxidation” below) (xanthine oxidase (XO) [4]) was 0.14.

In the case of COc1cc([C@H]2Oc3ccc([C@H]4Oc5cc(O)cc(O)c5C(=O)[C@@H]4O)cc3O[C@@H]2CO)ccc1O [ISA, isosilybin A], the “Log K SV ± SEM” value (xanthine oxidase (XO) [1]) was 4.46 ± 0.01, the Kd (xanthine oxidase (XO) [1]) was 18200 nM and the inhibition at 20 µM (xanthine oxidase (XO) [2]) was 64%. For the same compound, the “decrease in 6-thiouric acid formation (inhibition of XO-catalyzed 6MP oxidation)” value (xanthine oxidase (XO) [4]) was “weak to moderate inhibitors” and the “lower decrease in metabolite formation in the 6MP assay than in the xanthine assay” value (xanthine oxidase (XO) [4]) was about 20%.

With COc1cc(C2Oc3c(O)cc(-c4oc5cc(O)cc(O)c5c(=O)c4O)cc3C2CO)ccc1OS(=O)(=O)O (mixture of isomers) [DSCS, 2,3‐dehydrosilychristin‐19‐O‐sulfate] the “Log K SV ± SEM” value (xanthine oxidase (XO) [1]) was 4.68 ± 0.01, the “Log K ± SEM” value (xanthine oxidase (XO) [1]) was 5.12 ± 0.03 and the “K (binding constant) of polyphenol–XO complex” value (xanthine oxidase (XO) [1]) was “above 10^5 L mol^−1”. The pIC50 (xanthine oxidase (XO) [2]) was 7.10, the “XO-catalyzed uric acid formation” value (xanthine oxidase (XO) [2]) was “almost completely abolished” and the “α = IC50 … xanthine oxidation” value (xanthine oxidase (XO) [2]) was 0.31. The “reversibility of the inhibitory action on XO” value (xanthine oxidase (XO) [3]) was “reversible”, the pIC50 (xanthine oxidase (XO) [4]) was 6.68 and the “fold stronger inhibition than APU, 6MP assay” value (xanthine oxidase (XO) [4]) was “approximately 20 fold”. For the same compound, the “XO-catalyzed 6-thiouric acid formation” value (xanthine oxidase (XO) [4]) was “almost completely abolished” and the “α = IC50 of flavonoid/IC50 … 6MP oxidation” value (xanthine oxidase (XO) [4]) was 0.05.

In the case of COc1cc(C2Oc3c(O)cc(C4Oc5cc(O)cc(O)c5C(=O)C4O)cc3C2CO)ccc1OS(=O)(=O)O (mixture of isomers) [SCS, silychristin‐19‐O‐sulfate], the “Log K SV ± SEM” value (xanthine oxidase (XO) [1]) was 4.37 ± 0.03, the “Log K ± SEM” value (xanthine oxidase (XO) [1]) was 4.66 ± 0.02 and the “decrease in uric acid production (inhibition of XO-catalyzed xanthine oxidation)” value (xanthine oxidase (XO) [2]) was “weaker effect compared to its parent compound”. For the same compound, the “decrease in 6-thiouric acid formation (inhibition of XO-catalyzed 6MP oxidation)” value (xanthine oxidase (XO) [4]) was “weak to moderate inhibitors” and the “lower decrease in metabolite formation in the 6MP assay than in the xanthine assay” value (xanthine oxidase (XO) [4]) was about 20%.

O=C(O[C@@H]1Cc2c(O)cc(O)cc2O[C@@H]1c1ccc(O)c(O)c1)c1cc(O)c(O)c(O)c1 [ECG, epicatechin gallate] was tested, and the inhibition at 20 µM (xanthine oxidase (XO) [2]) was about 50% and the “decrease in 6-thiouric acid formation (inhibition of XO-catalyzed 6MP oxidation)” value (xanthine oxidase (XO) [4]) was “weak to moderate inhibitors”.

In the case of Oc1cc(O)c2c(c1)OC(c1ccc(O)c(O)c1)C(O)C2 (centres unmarked) [CAT, catechin], the “decrease in uric acid production (inhibition of XO-catalyzed xanthine oxidation)” value (xanthine oxidase (XO) [2]) was “did not cause significant changes”.

COc1cc([C@H]2Oc3cc([C@H]4Oc5cc(O)cc(O)c5C(=O)[C@@H]4O)ccc3O[C@@H]2CO)ccc1O [SA, silybin A] was tested, and the “Log K SV ± SEM” value (xanthine oxidase (XO) [1]) was 4.45 ± 0.04, the Kd (xanthine oxidase (XO) [1]) was 19500 nM and the “decrease in uric acid production (inhibition of XO-catalyzed xanthine oxidation)” value (xanthine oxidase (XO) [2]) was “only weak inhibitors”. The “decrease in 6-thiouric acid formation (inhibition of XO-catalyzed 6MP oxidation)” value (xanthine oxidase (XO) [4]) was “weak to moderate inhibitors”.

Oc1cc(O)c2c(c1)O[C@H](c1ccc(O)c(O)c1)[C@H](O)C2 [ECT, epicatechin] was tested, and the “decrease in uric acid production (inhibition of XO-catalyzed xanthine oxidation)” value (xanthine oxidase (XO) [2]) was “did not cause significant changes”.

For isosilybin A‐20‐O‐sulfate [ISAS], the “Log K SV ± SEM” value (xanthine oxidase (XO) [1]) was 4.49 ± 0.01, the “Log K ± SEM” value (xanthine oxidase (XO) [1]) was 4.90 ± 0.04 and the pIC50 (xanthine oxidase (XO) [2]) was 6.17. For the same compound, the “decrease in uric acid production (inhibition of XO-catalyzed xanthine oxidation)” value (xanthine oxidase (XO) [2]) was “more than 80%”, the “α = IC50 … xanthine oxidation” value (xanthine oxidase (XO) [2]) was 2.62 and the pIC50 (xanthine oxidase (XO) [4]) was 5.54. For the same compound, the “IC50(6MP)/IC50(xanthine)” value (xanthine oxidase (XO) [4]) was 4.2 and the “α = IC50 of flavonoid/IC50 … 6MP oxidation” value (xanthine oxidase (XO) [4]) was 0.68.
